ChEMBL document CHEMBL3526002, “Tissue distribution and identification of radioactivity components at elimination phase after oral administration of [¹⁴C]CS-1036, an α-amylase inhibitor, to rats” (Drug Metab Dispos, 2013)

Experiments:
Set-up in all cases: dose 5 mg/kg, dosed compound name [14C]CS-1036, route oral
Conditions in all cases: in vivo
[1] = system: Stomach; experiment: Drug uptake in albino F344/DuCrlCrlj rat stomach at 5 mg/kg, po after 8 hrs by liquid scintillation counting; assay type: ADME, organism-based
[2] = system: Pancreas; experiment: Drug uptake in albino F344/DuCrlCrlj rat pancreas assessed as ng equivalent of CS-1036 at 5 mg/kg, po after 1 hr by liquid scintillation counting; assay type: ADME, organism-based
[3] = system: Spleen; experiment: Drug uptake in albino F344/DuCrlCrlj rat spleen assessed as ng equivalent of CS-1036 at 5 mg/kg, po after 1 hr by liquid scintillation counting; assay type: ADME, organism-based
[4] = system: Heart; experiment: Drug uptake in albino F344/DuCrlCrlj rat heart assessed as ng equivalent of CS-1036 at 5 mg/kg, po after 72 hrs by liquid scintillation counting; assay type: ADME, organism-based
[5] = Drug uptake in albino F344/DuCrlCrlj rat skeletal muscle at 5 mg/kg, po after 336 hrs by liquid scintillation counting; assay type: ADME, organism-based, Muscle tissue
[6] = Drug uptake in albino F344/DuCrlCrlj rat testis at 5 mg/kg, po after 24 hrs by liquid scintillation counting; assay type: ADME, organism-based
[7] = Drug uptake in albino F344/DuCrlCrlj rat bone marrow assessed as ng equivalent of CS-1036 at 5 mg/kg, po after 24 hrs by liquid scintillation counting; assay type: ADME, organism-based
[8] = Drug uptake in albino F344/DuCrlCrlj rat skeletal muscle assessed as ng equivalent of CS-1036 at 5 mg/kg, po after 168 hrs by liquid scintillation counting; assay type: ADME, organism-based, Muscle tissue
[9] = system: Spleen; experiment: Drug uptake in albino F344/DuCrlCrlj rat spleen at 5 mg/kg, po after 8 hrs by liquid scintillation counting; assay type: ADME, organism-based
[10] = Drug uptake in albino F344/DuCrlCrlj rat urinary bladder at 5 mg/kg, po after 336 hrs by liquid scintillation counting; assay type: ADME, organism-based
[11] = system: Small intestine; experiment: Drug uptake in albino F344/DuCrlCrlj rat small intestine at 5 mg/kg, po after 8 hrs by liquid scintillation counting; assay type: ADME, organism-based
[12] = Drug uptake in albino F344/DuCrlCrlj rat mandibular gland assessed as ng equivalent of CS-1036 at 5 mg/kg, po after 72 hrs by liquid scintillation counting; assay type: ADME, organism-based
[13] = Drug uptake in albino F344/DuCrlCrlj rat pituitary gland assessed as ng equivalent of CS-1036 at 5 mg/kg, po after 24 hrs by liquid scintillation counting; assay type: ADME, organism-based

C[C@H]1O[C@@H](O[C@H]2[C@H](O)[C@@H](O)[C@@H](O[14C@H]3[14C@H](O)[14CH2]N[14C@@H]3[14CH2]O)O[C@@H]2CO)[C@H](O)[C@@H](O)[C@@H]1O
Radiolabel recovery [1]: 135 ngequiv/g
Radiolabel recovery [2]: 11 ngequiv/g
Radiolabel recovery [3]: 57.2 ngequiv/g
Radiolabel recovery [4]: 9.2 ngequiv/g
Radiolabel recovery [5]: 7.04 ngequiv/g
Radiolabel recovery [6]: 31.4 ngequiv/g
Radiolabel recovery [7]: 19 ngequiv/g
Radiolabel recovery [8]: 4.5 ngequiv/g
Radiolabel recovery [9]: 84.8 ngequiv/g
Radiolabel recovery [10]: 11.7 ngequiv/g
Radiolabel recovery [11]: 121 ngequiv/g
Radiolabel recovery [12]: 9.5 ngequiv/g
Radiolabel recovery [13]: 33.1 ngequiv/g
